This is an account of results in BindingDB's records for doi:10.1124/jpet.103.049619 (University of Kansas, 2003).

For assay [1], the target named is Histamine H1 receptor (Cavia porcellus, UniProt P31389).
The target of assay [2] is Histamine H1 receptor (Homo sapiens, UniProt P35367).
Sequence of Histamine H1 receptor (Homo sapiens, UniProt P35367) (P35367 whole entry): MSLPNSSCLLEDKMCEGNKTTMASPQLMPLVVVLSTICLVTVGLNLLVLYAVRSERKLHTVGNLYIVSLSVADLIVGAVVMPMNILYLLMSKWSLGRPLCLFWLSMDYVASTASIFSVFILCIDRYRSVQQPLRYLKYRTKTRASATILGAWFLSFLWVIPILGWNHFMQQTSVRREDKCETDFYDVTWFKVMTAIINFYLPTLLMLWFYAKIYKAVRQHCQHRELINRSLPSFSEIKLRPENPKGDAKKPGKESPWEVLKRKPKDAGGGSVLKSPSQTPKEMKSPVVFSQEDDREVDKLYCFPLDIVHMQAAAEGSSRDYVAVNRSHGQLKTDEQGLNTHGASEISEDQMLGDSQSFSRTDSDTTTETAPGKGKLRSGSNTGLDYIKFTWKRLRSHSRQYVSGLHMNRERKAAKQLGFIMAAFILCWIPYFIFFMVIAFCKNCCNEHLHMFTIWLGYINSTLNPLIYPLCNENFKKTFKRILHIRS

Sequence of Histamine H1 receptor (Cavia porcellus, UniProt P31389) (P31389 whole entry): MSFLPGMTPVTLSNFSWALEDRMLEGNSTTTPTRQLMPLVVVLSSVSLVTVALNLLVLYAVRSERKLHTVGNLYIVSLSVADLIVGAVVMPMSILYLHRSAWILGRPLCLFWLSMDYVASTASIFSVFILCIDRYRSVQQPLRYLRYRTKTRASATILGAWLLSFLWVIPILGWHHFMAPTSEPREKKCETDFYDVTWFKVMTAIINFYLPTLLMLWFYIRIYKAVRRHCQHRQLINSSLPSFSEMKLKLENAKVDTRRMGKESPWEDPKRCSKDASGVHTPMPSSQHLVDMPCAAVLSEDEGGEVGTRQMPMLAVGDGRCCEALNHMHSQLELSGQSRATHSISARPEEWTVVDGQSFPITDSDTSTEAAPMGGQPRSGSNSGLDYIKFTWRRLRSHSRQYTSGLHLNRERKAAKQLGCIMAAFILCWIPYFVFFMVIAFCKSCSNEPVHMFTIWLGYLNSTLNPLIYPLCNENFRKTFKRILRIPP

On to `NCCc1nccs1` [2-(2-aminoethyl)thiazole], for which, on Histamine H1 receptor [1], the Ki (as a rule, a dissociation constant, usually derived from enzyme kinetics or from competition with a known ligand) came out at 8.49 µM.
On to `NCCc1c[nH]c(-c2cccc(Cl)c2)n1` [2-(3-Chlorophenyl)histamine], for which the figures for the Ki on Histamine H1 receptor [2] and at Histamine H1 receptor [1] were 1.78 µM and 0.6 µM, respectively.
Turning to `NCCc1c[nH]c(-c2cccc(I)c2)n1` [2-(3-Iodophenyl)histamine], the Ki was 1.76 µM at Histamine H1 receptor [2] and 0.61 µM on Histamine H1 receptor [1].
For `NCCc1c[nH]c(-c2cccc(Br)c2)n1` [2-[2-(3-bromophenyl)-1H-imidazol-4-yl]ethan-1-amine], the Ki at Histamine H1 receptor [2] turned out to be 2.22 µM; at Histamine H1 receptor [1], 0.7 µM.
Consider `N=C(NCCCc1c[nH]cn1)NCCC(c1cccc(Cl)c1)c1ccccn1` (stereo unspecified) [BU-E 47], for which the Ki at Histamine H1 receptor [2] is 0.255 µM; at Histamine H1 receptor [1], 0.0539 µM.
In the case of `Cc1ccc(C(=CCN2CCCC2)c2ccccn2)cc1` [CAS_486-12-4], the affinity at Histamine H1 receptor [1] corresponds to a Ki of 0.00115 µM.
For the compound `NC(=NCCC(c1ccc(F)cc1)c1ccccn1)NCCCc1cnc[nH]1` (stereo unspecified) [CAS_65895], the Ki was 0.353 µM at Histamine H1 receptor [2] and 0.0333 µM at Histamine H1 receptor [1].
For the compound `CN(C)CCc1c[nH]c(CCC(c2ccccc2)c2ccccc2)n1` [N,N-Dimethyl-2-(3,3-diphenylpropyl)-1H-imidazole-4-(ethanamine)], the Ki amounted to 0.4 µM at Histamine H1 receptor [2] and 0.31 µM at Histamine H1 receptor [1].
Consider `CNCCc1cnc(CCC(c2ccccc2)c2ccccc2)[nH]1` [N-Methyl-2-(3,3-diphenylpropyl)-1H-imidazole-4-(ethanamine)], for which the values for the Ki at Histamine H1 receptor [2] and at Histamine H1 receptor [1] were 0.37 µM and 0.29 µM, respectively.
